Source: US20240076327A1 (priority 2020, published 2024)
Where a SMILES comes first, the peptide text is derived from it. Bridges are numbered along the chain shown (N, C = ends). Where no end group is shown, it is not given here.

Tests used:
[1] = buffer, 0 h, pH 9
[2] = physchem; conditions: buffer, pH 9

| Molecule | observed overall stability (percentage of remaining parent peak) [1] | remaining at 24 h [2] | remaining at 48 h [2] | remaining at 72 h [2] | remaining at 96 h [2] | remaining at 120 h [2] | remaining at 144 h [2] | remaining at 168 h [2] | remaining at 360 h [2] |
| --- | --- | --- | --- | --- | --- | --- | --- | --- | --- |
| CC[C@H](C)[C@H](NC(=O)[C@H](C)N)C(=O)N[C@H]1CSSC[C@@H]2NC(=O)[C@@H]3CSSC[C@@H](C(=O)N[C@@H](CCCNC(=N)N)C(=O)N[C@@H](CCCCN)C(=O)N[C@@H](CC(=O)O)C(=O)N[C@@H](CCC(=O)O)C(=O)N4CCC[C@H]4C(=O)O)NC(=O)[C@H](Cc4ccc(O)cc4)NC(=O)[C@H](CO)NC(=O)[C@H](C(C)C)NC(=O)CNC(=O)[C@H](CC(N)=O)NC(=O)[C@H](CO)NC(=O)[C@H](CCC(=O)O)NC(=O)[C@H](C)NC(=O)[C@H](CCCCN)NC(=O)[C@H](CSSC[C@H](NC(=O)[C@@H]4CCCN4C(=O)[C@H](CCCNC(=N)N)NC(=O)[C@H](CC(=O)O)NC(=O)[C@H](C)NC(=O)CNC(=O)[C@H]([C@@H](C)O)NC1=O)C(=O)N[C@@H](C)C(=O)N[C@@H](C)C(=O)N[C@H]1CSSC[C@H](NC1=O)C(=O)N1CCC[C@H]1C(=O)N3)NC(=O)[C@H](CO)NC(=O)[C@H]([C@@H](C)O)NC(=O)CNC(=O)[C@@H]1CCCN1C2=O [κ-hexatoxin-Hv1c] (H-AICTGADRPCAACCPCCPGTSCKAESNGVSYCRKDEP-OH; disulfide 3-17, 10-22, 13-14, 16-32) | 100% | 91% | 80% | 75% | 61% | 51% | 41% | 30% | 9% |
| GSQYCVPVDQPCSLNTQPCCDDATCTQERNENGHTVYYCRA (disulfide 5-20, 12-25, 19-39) [GS-ω/κ-hexatoxin-Hv1h] | 100% | 94% | 91% | 82% | 83% | 83% | 81% | 69% | 50% |
